Read-outs that look alike come from different tables or passages of the source.
Legend:
[1] = Description: Pelargonic acid is a naturally occurring fatty acid found in almost all species of animals and plants. Because it contains nine carbon atoms, it is also called nonanoic acid has the chemical formula CH3(CH2)7COOH. It is found at low levels in many common foods and is readily broken down in the environment. It is an oily colorless fluid that solidifies at lower temperatures.
In this experiment, the effect of free fatty acids was evaluated. […] The pH of the deionized water solutions was recorded and any problems with solubility noted
(§1) Myristic acid (5%, 10% and 20%) diluted in propionic acid was tested to determine its effectiveness against salmonella in feed.

Salmonella typhimurium [2] = assay: Study 7: myristic acid in propionic acid against salmonella in poultry feed; format: cell-based; conditions: Myristic/Propionic acids, 24 hours after treatment
Description: as §1
(§2) Commercial poultry feed amended with Salmonella typhimurium was treated with 1 or 3 kg/MT of the solutions listed below. Twenty four hours after treatment, 10 gr of feed was added to 90 ml Butterfield buffer, mixed and then 100 ul of the solution was plated on Standard Plate agar (triplicate plates). Plates were incubated at 37° C. for 24 hours prior to enumeration.

Salmonella typhimurium [3] = assay: Study 6: capric acid in acetic or propionic acid against salmonella in poultry feed; format: cell-based; conditions: Capric/Propionic acids, 24 hours after treatment
Description: as §2

Salmonella typhimurium [4] = assay: Example 2: effect of carbon chain length of individual organic acids on antimicrobial activity in water; format: cell-based; design: MIC at 4 HR / MIC at 24 FIR: unit not given here; conditions: for MIC at 4 HR / MIC at 24 FIR: Minimum Inhibitory Concentration of Organic Acids against Salmonella, by linear regression; for MIC at 24 FIR: 24 hours; for killing at […] / killing at 0.05 % / killing at 0.075 % / killing at 0.1 %: Salmonella enterica, TYPHIMURIUM
Description: 100 ul of a nutrient broth culture of Salmonella typhimurium was added to each dilution tube. After addition, tubes were vortexed and allowed to stand. At 4 and 24 hours after addition of the inoculum, 100 ul of the solution was plated on agar (triplicate plates). Plates were incubated at 37° C. for 24 hours prior to enumeration. The minimum effective dose of each acid was be determined by linear regression: […]

Salmonella typhimurium [5] = assay: Study 8: lauric acid in propionic acid against salmonella in poultry feed; format: cell-based; conditions: Lauric/Propionic acids, 24 hours after treatment
Description: Lauric acid (5%, 10%, 20%) diluted with propionic acid was tested to determine its effectiveness against salmonella in feed.
[…] Twenty four hours after treatment, 10 gr of feed was added to 90 ml Butterfield buffer, mixed and then 100 ul of the solution was plated on Standard Plate agar (triplicate plates). Plates were incubated at 37° C. for 24 hours prior to enumeration.

Salmonella typhimurium [6] = assay: Example 3: buffered organic acid mixtures with pelargonic acid in water; format: cell-based; conditions: for MIC at 4 HR / MIC at 24 HR: Minimum Inhibitory Concentration of Pelargonic when mixed with acetic or propionic acid (buffered to pH 3), by linear regression
Description: Procedure: Propionic and acetic acids were buffered with ammonium hydroxide to a pH of 3 and combined with pelargonic in the ratios above. Acid content of the buffered solutions was determined by weight to weight ratio calculation (weight of acid/total weight of buffered solution) and adjusted to provide an equal acid value for each treatment. […] The pHs of the deionized water solutions were recorded and any problems with solubility noted.
100 ul of a nutrient broth culture of Salmonella typhimurium was added to each dilution tube. After addition, tubes were vortexed and allowed to stand. At 4 and 24 hours after addition of the inoculum, 100 ul of the solution was plated on Standard Plate agar (triplicate plates). Plates were incubated at 37° C. for 24 hours prior to enumeration. The minimum effective dose of each acid was determined by linear regression.

Salmonella typhimurium [7] = assay: Study 5: propionic, acetic and pelargonic acids alone or in combination in water; format: cell-based
Description: Propionic, acetic and pelargonic acids by themselves or in combination as listed were added to sterile deionized water to make at a 0.05%, 0.04%, 0.03%, 0.02% and 0.01% total acid solutions. The pHs of the deionized water solutions were recorded and any problems with solubility noted. 100 ul of a nutrient broth culture of Salmonella typhimurium was added to each dilution tube. After addition, tubes were vortexed and allowed to stand. At 24 hours after addition of the inoculum, 100 ul of the solution was plated on Standard Plate agar (triplicate plates). Plates were incubated at 37° C. for 24 hours prior to enumeration.

[8] = general description in background; cited from earlier work
M. gypseum = conditions: acids tested independently, cited from earlier work
C. irritans = conditions: cited from earlier work
[9] = Test Product 0.01 % total acid solution in water
[10] = Test Product 0.02 % total acid solution in water
[11] = Test Product 0.04 % total acid solution in water
[12] = Test Product 0.05 % total acid solution in water
[13] = Product Conc. 0.025 (% total acid solution in water)
[14] = Product Conc. 0.05 (% total acid solution in water)
[15] = Product Conc. 0.075 (% total acid solution in water)
[16] = Product Conc. 0.1 (% total acid solution in water)

For CCCCCCCCCCCC(=O)O [lauric, Lauric acid], the solubility in water [1] was “not soluble in water”.
In the case of CCC(=O)O [Propionic acid], the “% Reduction” value (Salmonella typhimurium [2]; 1 kg/MT) is reported as 90.08%, the cfu/g (Salmonella typhimurium [2]; 1 kg/MT) is reported as 3967 cfu/g and the “% Reduction” value (Salmonella typhimurium [2]; 3 kg/MT) is reported as 99.42%. The cfu/g (Salmonella typhimurium [2]; 3 kg/MT) was 233 cfu/g, the “% Reduction” value (Salmonella typhimurium [3]; 1 kg/ton) was 0% and the cfu/g (Salmonella typhimurium [3]; 1 kg/ton) was 4633 cfu/g. The “% Reduction” value (Salmonella typhimurium [3]; 3 kg/ton) was 0%, the cfu/g (Salmonella typhimurium [3]; 3 kg/ton) was 5633 cfu/g and the “MIC at 4 HR” value (Salmonella typhimurium [4]; 4 hr) was 0166. For the same compound, the “MIC at 24 FIR” value (Salmonella typhimurium [4]) was 0.066, the “Salmonella at time Interval 4 hr cfu/g” value (Salmonella typhimurium [4]; Product Conc. 0.025 (% acid solution in water), 4 hr) was 1167 cfu/g and the “Salmonella at time Interval 24 hr cfu/g” value (Salmonella typhimurium [4]; Product Conc. 0.025 (% acid solution in water), 24 hr) was 170 cfu/g. The “Salmonella at time Interval 4 hr cfu/g” value (Salmonella typhimurium [4]; Product Conc. 0.05 (% acid solution in water), 4 hr) was 900 cfu/g, the “Salmonella at time Interval 24 hr cfu/g” value (Salmonella typhimurium [4]; Product Conc. 0.05 (% acid solution in water), 24 hr) was 40 cfu/g and the “Salmonella at time Interval 4 hr cfu/g” value (Salmonella typhimurium [4]; Product Conc. 0.075 (% acid solution in water), 4 hr) was 877 cfu/g. The “Salmonella at time Interval 24 hr cfu/g” value (Salmonella typhimurium [4]; Product Conc. 0.075 (% acid solution in water), 24 hr) was 25 cfu/g, the “Salmonella at time Interval 4 hr cfu/g” value (Salmonella typhimurium [4]; Product Conc. 0.1 (% acid solution in water), 4 hr) was 773 cfu/g and the “Salmonella at time Interval 24 hr cfu/g” value (Salmonella typhimurium [4]; Product Conc. 0.1 (% acid solution in water), 24 hr) was 30 cfu/g. The killing at […] (Salmonella typhimurium [4]; Product Conc. 0.025 (% acid solution in water), 4 hr, read-out: Salmonella at time Interval 4 hr % reduction) was 27%, the killing at […] (Salmonella typhimurium [4]; Product Conc. 0.025 (% acid solution in water), 24 hr, read-out: Salmonella at time Interval 24 hr % reduction) was 90% and the killing at 0.05 % (Salmonella typhimurium [4]; Product Conc. 0.05 (% acid solution in water), 4 hr, read-out: Salmonella at time Interval 4 hr % reduction) was 44%. It also gave a killing at 0.05 % (Salmonella typhimurium [4]; Product Conc. 0.05 (% acid solution in water), 24 hr, read-out: Salmonella at time Interval 24 hr % reduction) of 98%, a killing at 0.075 % (Salmonella typhimurium [4]; Product Conc. 0.075 (% acid solution in water), 4 hr, read-out: Salmonella at time Interval 4 hr % reduction) of 45% and a killing at 0.075 % (Salmonella typhimurium [4]; Product Conc. 0.075 (% acid solution in water), 24 hr, read-out: Salmonella at time Interval 24 hr % reduction) of 99%. For the same compound, the killing at 0.1 % (Salmonella typhimurium [4]; Product Conc. 0.1 (% acid solution in water), 4 hr, read-out: Salmonella at time Interval 4 hr % reduction) was 52%, the killing at 0.1 % (Salmonella typhimurium [4]; Product Conc. 0.1 (% acid solution in water), 24 hr, read-out: Salmonella at time Interval 24 hr % reduction) was 98% and the “% Reduction” value (Salmonella typhimurium [5]; 1 kg/MT) was 92.3%. For the same compound, the cfu/g (Salmonella typhimurium [5]; 1 kg/MT) was 2567 cfu/g, the “% Reduction” value (Salmonella typhimurium [5]; 3 kg/MT) was 100.0% and the cfu/g (Salmonella typhimurium [5]; 3 kg/MT) was 0 cfu/g. The “MIC at 4 HR” value (Salmonella typhimurium [6]) was 0.179, the “MIC at 24 HR” value (Salmonella typhimurium [6]) was 0.064 and the “Salmonella 24 hr afterTreatment (cfu/g)” value (Salmonella typhimurium [7]; [9]) was 1200 cfu/g. The “Salmonella 24 hr afterTreatment (cfu/g)” value (Salmonella typhimurium [7]; [10]) was 870 cfu/g, the “Salmonella 24 hr afterTreatment (cfu/g)” value (Salmonella typhimurium [7]; Test Product 0.03 % total acid solution in water) was 810 cfu/g and the “Salmonella 24 hr afterTreatment (cfu/g)” value (Salmonella typhimurium [7]; [11]) was 910 cfu/g. For the same compound, the “Salmonella 24 hr afterTreatment (cfu/g)” value (Salmonella typhimurium [7]; [12]) was 560 cfu/g.
In the case of CCCCCCCCC(=O)O [Pelargonic acid], the solubility in water [8] is given as “almost insoluble in water”, the “MIC at 4 HR” value (Salmonella typhimurium [4]; 4 hr) is given as 0.063 and the “MIC at 24 FIR” value (Salmonella typhimurium [4]) is given as <0.025. The “minimum inhibitory concentration (MTC) to prevent growth of M. gypseum” value (M. gypseum; in liquid media) was 50 µg/mL, the “minimum inhibitory concentration (MTC) to prevent growth of M. gypseum” value (M. gypseum; on solid media) was 40 µg/mL and the “MIC at 4 HR” value (Salmonella typhimurium [6]) was <0.025. The “MIC at 24 HR” value (Salmonella typhimurium [6]) was <0.025, the “Salmonella at time Interval 4 hr % reduction” value (Salmonella typhimurium [6]; [13]) was 100% and the “Salmonella at time Interval 4 hr cfu/g” value (Salmonella typhimurium [6]; [13]) was 0 cfu/g. For the same compound, the “Salmonella at time Interval 24 hr % reduction” value (Salmonella typhimurium [6]; [13]) was 100%, the “Salmonella at time Interval 24 hr cfu/g” value (Salmonella typhimurium [6]; [13]) was 0 cfu/g and the “Salmonella at time Interval 4 hr % reduction” value (Salmonella typhimurium [6]; [14]) was 100%. The “Salmonella at time Interval 4 hr cfu/g” value (Salmonella typhimurium [6]; [14]) was 0 cfu/g, the “Salmonella at time Interval 24 hr % reduction” value (Salmonella typhimurium [6]; [14]) was 100% and the “Salmonella at time Interval 24 hr cfu/g” value (Salmonella typhimurium [6]; [14]) was 0 cfu/g. For the same compound, the “Salmonella at time Interval 4 hr % reduction” value (Salmonella typhimurium [6]; [15]) was 100%, the “Salmonella at time Interval 4 hr cfu/g” value (Salmonella typhimurium [6]; [15]) was 0 cfu/g and the “Salmonella at time Interval 24 hr % reduction” value (Salmonella typhimurium [6]; [15]) was 100%. For the same compound, the “Salmonella at time Interval 24 hr cfu/g” value (Salmonella typhimurium [6]; [15]) was 0 cfu/g, the “Salmonella at time Interval 4 hr % reduction” value (Salmonella typhimurium [6]; [16]) was 100% and the “Salmonella at time Interval 4 hr cfu/g” value (Salmonella typhimurium [6]; [16]) was 0 cfu/g. For the same compound, the “Salmonella at time Interval 24 hr % reduction” value (Salmonella typhimurium [6]; [16]) was 100%, the “Salmonella at time Interval 24 hr cfu/g” value (Salmonella typhimurium [6]; [16]) was 0 cfu/g and the “Salmonella 24 hr afterTreatment (cfu/g)” value (Salmonella typhimurium [7]; [9]) was 1400 cfu/g. For the same compound, the “Salmonella 24 hr afterTreatment (cfu/g)” value (Salmonella typhimurium [7]; [10]) was 1300 cfu/g, the “Salmonella 24 hr afterTreatment (cfu/g)” value (Salmonella typhimurium [7]; [11]) was 1500 cfu/g and the “Salmonella 24 hr afterTreatment (cfu/g)” value (Salmonella typhimurium [7]; [12]) was 850 cfu/g. For the same compound, the solubility in water [1] was “not soluble in water” and the “controlling the growth of the parasite C. irritans” value (C. irritans) was “effective in controlling the growth”.

— patent US10785975B2, “Water and feed antimicrobial preservative” (priority 2009, dated 2020)
